From ChEMBL document CHEMBL1159093, “Discovery and optimization of RO-85, a novel drug-like, potent, and selective P2X3 receptor antagonist” (Bioorg Med Chem Lett, 2010)
pIC50: −log10 of the molar value.

Legend:
[1] = biological target: 5-hydroxytryptamine receptor 5A (Homo sapiens) (UniProt P47898); test: Displacement of [3H]LSD from human recombinant 5HT5A receptor expressed in HEK293 cells at 10 uM after 120 mins by scintillation counting; assay type: cell-based
[2] = biological target: Muscarinic acetylcholine receptor M3 (Homo sapiens) (UniProt P20309); test: Displacement of [3H]4-DAMP from human recombinant muscarinic M3 receptor expressed in CHO cells at 10 uM after 60 mins by scintillation counting; assay type: cell-based
Rattus norvegicus [3] = organism: Rattus norvegicus; test: Displacement of [3H]GABA from GABA receptor in rat cerebral cortex at 10 uM after 60 mins by scintillation counting; assay type: tissue-based
[4] = biological target: 5-hydroxytryptamine receptor 2B (Homo sapiens) (UniProt P41595); test: Displacement of [125I](+/-)DOI from human recombinant 5HT2B receptor expressed in CHO cells at 10 uM after 60 mins by scintillation counting; assay type: cell-based
[5] = biological target: Endothelin receptor type B (Homo sapiens) (UniProt P24530); test: Displacement of [125I]endothelin-1 from human recombinant ETB receptor expressed in CHO cells at 10 uM after 120 mins by scintillation counting; assay type: cell-based
[6] = biological target: Vasopressin V1a receptor (Homo sapiens) (UniProt P37288); test: Displacement of [3H]AVP from human recombinant vasopressin V1a receptor expressed in CHO cells at 10 uM after 60 mins by scintillation counting; assay type: cell-based
Sequence of Vasopressin V1a receptor (Homo sapiens) (P37288 whole entry, looked up): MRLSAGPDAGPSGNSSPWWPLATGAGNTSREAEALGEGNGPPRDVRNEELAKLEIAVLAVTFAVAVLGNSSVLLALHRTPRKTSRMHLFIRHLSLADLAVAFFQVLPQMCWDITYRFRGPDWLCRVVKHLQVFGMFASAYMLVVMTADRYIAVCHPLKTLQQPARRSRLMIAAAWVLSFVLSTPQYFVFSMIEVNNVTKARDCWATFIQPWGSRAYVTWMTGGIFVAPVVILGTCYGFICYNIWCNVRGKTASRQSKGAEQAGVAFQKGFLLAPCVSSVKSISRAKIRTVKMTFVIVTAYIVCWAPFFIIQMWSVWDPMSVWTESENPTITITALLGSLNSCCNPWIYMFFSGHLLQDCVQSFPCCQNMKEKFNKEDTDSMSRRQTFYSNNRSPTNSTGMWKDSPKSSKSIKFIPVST

[7] = biological target: D(1B) dopamine receptor (Homo sapiens) (UniProt P21918); test: Displacement of [3H]SCH 23390 from human recombinant dopamine D5 receptor expressed in rat GH4 cells at 10 uM after 60 mins by scintillation counting; assay type: cell-based
Sequence of D(1B) dopamine receptor (Homo sapiens) (P21918 whole entry): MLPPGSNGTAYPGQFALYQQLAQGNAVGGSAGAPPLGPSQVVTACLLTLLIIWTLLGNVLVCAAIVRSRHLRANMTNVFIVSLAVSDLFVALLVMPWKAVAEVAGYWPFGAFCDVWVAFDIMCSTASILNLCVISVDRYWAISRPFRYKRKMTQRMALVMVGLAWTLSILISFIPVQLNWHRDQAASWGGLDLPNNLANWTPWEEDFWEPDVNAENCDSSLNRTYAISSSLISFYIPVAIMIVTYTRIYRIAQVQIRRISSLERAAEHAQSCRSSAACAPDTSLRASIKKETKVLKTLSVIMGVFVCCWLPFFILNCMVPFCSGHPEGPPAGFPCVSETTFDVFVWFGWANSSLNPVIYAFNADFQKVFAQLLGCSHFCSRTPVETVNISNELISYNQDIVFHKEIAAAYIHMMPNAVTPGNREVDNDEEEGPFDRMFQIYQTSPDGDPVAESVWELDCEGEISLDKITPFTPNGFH

P2X purinoceptor 7 = P2X purinoceptor 7 (Homo sapiens, UniProt Q99572); test: Antagonist activity at P2X7 receptor; assay type: functional
Sequence of P2X purinoceptor 7 (Q99572 whole entry): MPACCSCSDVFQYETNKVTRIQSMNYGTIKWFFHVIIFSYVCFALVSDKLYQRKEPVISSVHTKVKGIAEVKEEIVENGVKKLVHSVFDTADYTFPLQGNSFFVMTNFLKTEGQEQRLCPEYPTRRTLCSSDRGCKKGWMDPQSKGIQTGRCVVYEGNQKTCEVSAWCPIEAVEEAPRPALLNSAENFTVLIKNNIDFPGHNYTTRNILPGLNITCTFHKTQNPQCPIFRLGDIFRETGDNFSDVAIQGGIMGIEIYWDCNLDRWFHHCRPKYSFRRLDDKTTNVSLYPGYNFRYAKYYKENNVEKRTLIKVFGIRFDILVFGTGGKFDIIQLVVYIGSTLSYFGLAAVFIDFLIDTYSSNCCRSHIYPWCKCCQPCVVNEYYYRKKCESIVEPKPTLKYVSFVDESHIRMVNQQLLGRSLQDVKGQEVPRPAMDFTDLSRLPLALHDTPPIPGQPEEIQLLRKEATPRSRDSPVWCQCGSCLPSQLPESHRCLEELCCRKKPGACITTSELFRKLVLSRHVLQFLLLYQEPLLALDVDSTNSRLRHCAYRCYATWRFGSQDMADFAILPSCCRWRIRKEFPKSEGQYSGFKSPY

[8] = Metabolic stability in human liver microsomes; assay type: ADME, Microsome; details: read-out: Stability
[9] = biological target: Vasoactive intestinal polypeptide receptor 1 (Homo sapiens) (UniProt P32241); test: Displacement of [125I]VIP from human recombinant VPAC1 receptor expressed in CHO cells at 10 uM after 60 mins by scintillation counting; assay type: cell-based
[10] = biological target: 5-hydroxytryptamine receptor 6 (Homo sapiens) (UniProt P50406); test: Displacement of [3H]LSD from human recombinant 5HT6 receptor expressed in CHO cells at 10 uM after 120 mins by scintillation counting; assay type: cell-based
[11] = biological target: Melanocortin receptor 4 (Homo sapiens) (UniProt P32245); test: Displacement of [125I]NDP-a-MSH from human recombinant MC4 receptor expressed in CHO cells at 10 uM after 120 mins by scintillation counting; assay type: cell-based
[12] = biological target: Adrenergic receptor alpha-1 (Rattus norvegicus) (UniProt P15823+P23944+P43140); test: Displacement of [3H]prazosin from alpha1 receptor in rat cerebral cortex at 10 uM after 60 mins by scintillation counting; assay type: tissue-based
[13] = biological target: Pituitary adenylate cyclase-activating polypeptide type I receptor (Homo sapiens) (UniProt P41586); test: Displacement of [125I]PACAP1-27 from human recombinant PAC1 receptor expressed in CHO cells at 10 uM after 120 mins by scintillation counting; assay type: cell-based
[14] = biological target: Somatostatin receptor (Mus musculus) (UniProt P30935+O08858+P30875+P30873+P49660); test: Displacement of [125I]Tyr11-somatostatin-14 from somatostatin in mouse AtT-20 cells at 10 uM after 60 mins by scintillation counting; assay type: cell-based; details: AtT20
P2X purinoceptor 2 = P2X purinoceptor 2 (Homo sapiens, UniProt Q9UBL9); test: Antagonist activity at P2X2 receptor; assay type: functional
[15] = biological target: Neuromedin-K receptor (Homo sapiens) (UniProt P29371); test: Displacement of [3H]SR142801 from human recombinant NK3 receptor expressed in CHO cells at 10 uM after 120 mins by scintillation counting; assay type: cell-based
Sequence of Neuromedin-K receptor (Homo sapiens) (P29371 whole entry): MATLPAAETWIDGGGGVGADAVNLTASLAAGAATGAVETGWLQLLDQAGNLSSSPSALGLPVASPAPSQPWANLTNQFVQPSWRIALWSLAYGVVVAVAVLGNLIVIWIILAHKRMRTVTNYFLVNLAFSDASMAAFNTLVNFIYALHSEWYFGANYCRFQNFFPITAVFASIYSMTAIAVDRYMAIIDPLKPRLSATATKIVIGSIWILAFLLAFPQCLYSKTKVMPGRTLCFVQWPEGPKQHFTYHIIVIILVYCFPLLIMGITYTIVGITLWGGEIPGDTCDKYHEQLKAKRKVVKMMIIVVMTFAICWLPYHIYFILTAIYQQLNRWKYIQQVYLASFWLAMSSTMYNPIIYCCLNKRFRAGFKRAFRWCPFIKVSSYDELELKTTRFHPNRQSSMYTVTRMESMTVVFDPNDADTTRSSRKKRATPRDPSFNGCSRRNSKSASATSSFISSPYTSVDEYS

[16] = biological target: 5-hydroxytryptamine receptor 2C (Homo sapiens) (UniProt P28335); test: Displacement of [3H]mesulergine from human recombinant 5HT2C receptor expressed in HEK293 cells at 10 uM after 120 mins by scintillation counting; assay type: cell-based
[17] = biological target: Muscarinic acetylcholine receptor M2 (Homo sapiens) (UniProt P08172); test: Displacement of [3H]AF-DX 384 from human recombinant muscarinic M2 receptor expressed in CHO cells at 10 uM after 60 mins by scintillation counting; assay type: cell-based
[18] = biological target: D(3) dopamine receptor (Homo sapiens) (UniProt P35462); test: Displacement of [3H]methyl-spiperone from human recombinant dopamine D3 receptor expressed in CHO cells at 10 uM after 60 mins by scintillation counting; assay type: cell-based
Sequence of D(3) dopamine receptor (Homo sapiens) (P35462 whole entry): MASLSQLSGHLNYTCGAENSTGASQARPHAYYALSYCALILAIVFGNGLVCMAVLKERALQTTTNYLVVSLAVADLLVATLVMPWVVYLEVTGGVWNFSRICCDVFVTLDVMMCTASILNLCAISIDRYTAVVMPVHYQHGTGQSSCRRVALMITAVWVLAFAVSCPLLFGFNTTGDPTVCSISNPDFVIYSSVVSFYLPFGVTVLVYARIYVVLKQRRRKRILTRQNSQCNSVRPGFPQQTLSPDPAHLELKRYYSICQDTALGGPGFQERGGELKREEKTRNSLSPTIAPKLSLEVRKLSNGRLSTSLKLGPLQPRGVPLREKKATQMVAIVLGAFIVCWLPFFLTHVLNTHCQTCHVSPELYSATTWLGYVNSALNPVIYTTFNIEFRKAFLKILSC

Rattus norvegicus [19] = organism: Rattus norvegicus; test: Displacement of [3H]DTG from sigma opioid receptor in rat cerebral cortex at 10 uM after 120 mins by scintillation counting; assay type: tissue-based
[20] = biological target: Galanin receptor type 1 (Homo sapiens) (UniProt P47211); test: Displacement of [125I]galanin from human recombinant GAL1 receptor expressed in HEK293 cells at 10 uM after 60 mins by scintillation counting; assay type: cell-based
Sequence of Galanin receptor type 1 (Homo sapiens) (P47211 whole entry): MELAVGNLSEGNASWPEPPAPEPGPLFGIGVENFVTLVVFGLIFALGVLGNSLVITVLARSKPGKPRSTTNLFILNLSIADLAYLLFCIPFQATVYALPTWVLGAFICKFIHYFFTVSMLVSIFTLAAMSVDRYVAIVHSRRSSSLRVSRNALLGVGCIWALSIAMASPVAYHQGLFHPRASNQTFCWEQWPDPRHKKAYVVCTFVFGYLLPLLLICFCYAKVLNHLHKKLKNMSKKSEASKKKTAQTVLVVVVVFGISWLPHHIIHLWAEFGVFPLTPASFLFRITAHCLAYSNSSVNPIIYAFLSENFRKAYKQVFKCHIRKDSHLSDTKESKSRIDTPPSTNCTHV

P2X purinoceptor 1 = P2X purinoceptor 1 (Homo sapiens, UniProt P51575); test: Antagonist activity at P2X1 receptor; assay type: functional
Sequence of P2X purinoceptor 1 (P51575 whole entry): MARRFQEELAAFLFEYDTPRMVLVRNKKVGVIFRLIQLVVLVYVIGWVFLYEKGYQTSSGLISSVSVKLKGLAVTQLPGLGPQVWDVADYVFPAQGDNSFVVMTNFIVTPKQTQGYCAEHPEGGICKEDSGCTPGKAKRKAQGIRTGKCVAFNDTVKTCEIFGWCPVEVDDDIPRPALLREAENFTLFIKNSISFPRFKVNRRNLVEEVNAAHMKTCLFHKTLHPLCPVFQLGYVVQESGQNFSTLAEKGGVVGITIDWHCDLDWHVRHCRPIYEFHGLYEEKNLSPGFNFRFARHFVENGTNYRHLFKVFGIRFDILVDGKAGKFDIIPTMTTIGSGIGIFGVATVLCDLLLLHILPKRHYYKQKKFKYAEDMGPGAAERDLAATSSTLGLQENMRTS

[21] = biological target: Prostaglandin E2 receptor EP2 subtype (Homo sapiens) (UniProt P43116); test: Displacement of [3H]PGE2 from human recombinant EP2 receptor expressed in HEK293 cells at 10 uM after 120 mins by scintillation counting; assay type: cell-based
[22] = biological target: Type-1 angiotensin II receptor (Homo sapiens) (UniProt P30556); test: Displacement of [125I][Sar1,Ile8]-AT-2 from human recombinant AT1 receptor expressed in HEK293 cells at 10 uM after 120 mins by scintillation counting; assay type: cell-based
Sequence of Type-1 angiotensin II receptor (Homo sapiens) (P30556 whole entry): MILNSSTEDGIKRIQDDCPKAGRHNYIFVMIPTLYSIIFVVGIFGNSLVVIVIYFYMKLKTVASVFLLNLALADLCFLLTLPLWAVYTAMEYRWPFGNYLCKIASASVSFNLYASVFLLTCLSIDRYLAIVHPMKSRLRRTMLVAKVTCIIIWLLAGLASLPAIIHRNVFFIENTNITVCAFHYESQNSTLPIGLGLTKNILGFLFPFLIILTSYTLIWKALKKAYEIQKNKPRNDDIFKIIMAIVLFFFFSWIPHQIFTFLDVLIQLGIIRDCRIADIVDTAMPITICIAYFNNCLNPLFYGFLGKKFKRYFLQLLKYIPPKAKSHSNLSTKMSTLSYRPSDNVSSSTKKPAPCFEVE

[23] = biological target: Tumor necrosis factor (Homo sapiens) (UniProt P01375); test: Displacement of [125I]TNF-a from TNFalpha in human U937 cells at 10 uM after 120 mins by scintillation counting; assay type: cell-based; details: U-937
[24] = biological target: D(2) dopamine receptor (Homo sapiens) (UniProt P14416); test: Displacement of [3H]methyl-spiperone from human recombinant D2S receptor expressed in HEK293 cells at 10 uM after 60 mins by scintillation counting; assay type: cell-based
Sequence of D(2) dopamine receptor (Homo sapiens) (P14416 whole entry): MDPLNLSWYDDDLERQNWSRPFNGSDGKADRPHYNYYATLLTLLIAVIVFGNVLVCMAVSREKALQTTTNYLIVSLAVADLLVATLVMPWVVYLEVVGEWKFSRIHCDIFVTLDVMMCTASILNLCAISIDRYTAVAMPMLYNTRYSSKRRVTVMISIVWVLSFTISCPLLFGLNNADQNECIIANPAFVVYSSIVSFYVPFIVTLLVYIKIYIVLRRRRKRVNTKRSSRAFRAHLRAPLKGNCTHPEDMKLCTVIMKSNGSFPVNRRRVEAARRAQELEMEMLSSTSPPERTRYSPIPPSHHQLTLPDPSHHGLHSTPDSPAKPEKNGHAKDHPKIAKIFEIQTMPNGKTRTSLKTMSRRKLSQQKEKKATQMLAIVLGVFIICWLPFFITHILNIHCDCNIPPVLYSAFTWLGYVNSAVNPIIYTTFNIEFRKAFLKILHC

[25] = biological target: Neuropeptide Y receptor type 1 (Homo sapiens) (UniProt P25929); test: Displacement of [125I]peptideYY from neuropeptide Y1 receptor in human SK-N-MC cells at 10 uM after 120 mins by scintillation counting; assay type: cell-based
[26] = Oral bioavailability in rat; assay type: ADME, organism-based; details: in vivo
[27] = biological target: Sodium-dependent serotonin transporter (Homo sapiens) (UniProt P31645); test: Displacement of [3H]imipramine from human recombinant SERT expressed in CHO cells at 10 uM after 60 mins by scintillation counting; assay type: cell-based
Sequence of Sodium-dependent serotonin transporter (Homo sapiens) (P31645 whole entry, looked up): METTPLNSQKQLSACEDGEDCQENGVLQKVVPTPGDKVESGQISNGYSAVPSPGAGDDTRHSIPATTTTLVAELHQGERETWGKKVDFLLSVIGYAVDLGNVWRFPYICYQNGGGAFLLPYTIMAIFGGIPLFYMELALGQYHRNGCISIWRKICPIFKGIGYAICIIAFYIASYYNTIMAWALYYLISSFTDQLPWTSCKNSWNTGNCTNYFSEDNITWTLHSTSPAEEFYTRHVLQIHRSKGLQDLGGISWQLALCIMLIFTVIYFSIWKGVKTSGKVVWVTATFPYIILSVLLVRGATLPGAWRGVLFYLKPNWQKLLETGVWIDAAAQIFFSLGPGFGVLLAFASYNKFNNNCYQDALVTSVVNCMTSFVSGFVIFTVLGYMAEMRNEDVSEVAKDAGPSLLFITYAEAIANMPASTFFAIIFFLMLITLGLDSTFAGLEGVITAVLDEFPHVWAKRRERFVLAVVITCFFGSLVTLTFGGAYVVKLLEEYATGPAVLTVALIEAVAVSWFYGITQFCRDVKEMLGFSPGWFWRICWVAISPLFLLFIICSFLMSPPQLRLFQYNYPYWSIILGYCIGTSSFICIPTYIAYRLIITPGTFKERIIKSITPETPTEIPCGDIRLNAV

[28] = biological target: C-C chemokine receptor type 1 (Homo sapiens) (UniProt P32246); test: Displacement of [125I]MIP-1a from human recombinant CCR1 receptor expressed in HEK293 cells at 10 uM after 120 mins by scintillation counting; assay type: cell-based
Hepatocyte = test: Metabolic stability in rat hepatocytes; assay type: ADME, cell-based
[29] = biological target: Prostacyclin receptor (Homo sapiens) (UniProt P43119); test: Displacement of [3H]iloprost from human recombinant IP receptor expressed in HEK293 cells at 10 uM after 60 mins by scintillation counting; assay type: cell-based
Sequence of Prostacyclin receptor (Homo sapiens) (P43119 whole entry): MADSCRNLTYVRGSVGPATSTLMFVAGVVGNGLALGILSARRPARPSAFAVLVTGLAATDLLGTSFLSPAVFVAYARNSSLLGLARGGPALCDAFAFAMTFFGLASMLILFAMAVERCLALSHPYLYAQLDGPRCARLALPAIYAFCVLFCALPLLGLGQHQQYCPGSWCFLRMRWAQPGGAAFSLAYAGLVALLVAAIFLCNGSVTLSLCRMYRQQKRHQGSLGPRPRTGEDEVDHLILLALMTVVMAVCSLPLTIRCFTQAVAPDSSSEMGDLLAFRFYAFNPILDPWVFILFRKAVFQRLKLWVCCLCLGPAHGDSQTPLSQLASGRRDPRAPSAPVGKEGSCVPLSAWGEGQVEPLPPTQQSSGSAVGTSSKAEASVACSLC

Work on `CC(=O)N1CCN(C[C@@H](C)NC(=O)c2cc3c(-c4ccccc4)nn(C)c3s2)CC1` yielded an Activity [1] greater than 50%, an Activity [2] greater than 50% and an Activity (Rattus norvegicus [3]) greater than 50%. The Activity [4] was greater than 50%, the Activity [5] was greater than 50% and the Activity [6] was greater than 50%. It also gave an Activity [7] greater than 50%, a pIC50 (P2X purinoceptor 7) of less than 5.00 and a microsomal CLint [8] of 1.7 µL/min/mg. It also gave an Activity [9] greater than 50%, an Activity [10] greater than 50% and an Activity [11] greater than 50%. For the same compound, the Activity [12] was greater than 50%, the Activity [13] was greater than 50% and the Activity [14] was greater than 50%. For the same compound, the pIC50 (P2X purinoceptor 2) was less than 5.00, the Activity [15] was greater than 50% and the Activity [16] was greater than 50%. For the same compound, the Activity [17] was greater than 50%, the Activity [18] was greater than 50% and the Activity (Rattus norvegicus [19]) was greater than 50%. For the same compound, the Activity [20] was greater than 50%, the pIC50 (P2X purinoceptor 1) was less than 5.00 and the Activity [21] was greater than 50%. For the same compound, the Activity [22] was greater than 50%, the Activity [23] was greater than 50% and the Activity [24] was greater than 50%. For the same compound, the Activity [25] was greater than 50%, the bioavailability [26] was 89% and the Activity [27] was greater than 50%. It also gave an Activity [28] greater than 50%, a Stability (Hepatocyte) of 3.93 µL/min/mg and an Activity [29] greater than 50%.
